Measurements published in patent US6287813A, “Antibiotic-based gene regulation system” (Cistronics Cell Technology GmbH, priority 1999, dated 2001).

Legend:
PIT/PPIR system [1] = target: T1, PIT/PPIR system (Streptomyces coelicolor, UniProt Q9ADN3); test: SEAP reporter assay, CHO-K1 cotransfected with pMF156 (PIT) and pMF172 (PPIR-SEAP); format: cell-based
T1 construct: pMF156/pTWIN in CHO cells, PPIR-SEAP or GFP reporter
T1 sequence (Q9ADN3 1-252): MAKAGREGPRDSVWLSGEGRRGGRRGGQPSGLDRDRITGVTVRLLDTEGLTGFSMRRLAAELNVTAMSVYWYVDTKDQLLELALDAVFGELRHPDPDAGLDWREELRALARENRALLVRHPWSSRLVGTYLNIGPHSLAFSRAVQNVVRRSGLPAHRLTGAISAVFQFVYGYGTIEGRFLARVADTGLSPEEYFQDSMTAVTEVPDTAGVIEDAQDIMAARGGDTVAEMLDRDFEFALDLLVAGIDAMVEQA
Description: PIT, the fusion protein of Pip and the VP16 C-terminal transactivation domain of Herpes simplex (Triezenberg et al., 1988, Genes Dev. 2, 718-729) was constructed by amplifying the S. coelicolor Pip from pGemT::Epip4 with oligos:
(§1) Chinese hamster ovary cells (CHO-K1, ATCC: CCL 61), Baby hamster kidney cells (BHK-21, ATCC: CRL-8544), and HeLa cells (ATCC: CRL-7923) as well as stable cell lines CHO-PIT1, CHO-PIT2, CHO-TWIN195, CHO-TWIN1108 and CHO-PIT1-SEAP were cultured as described before (Fussenegger et al., 1998, Nat. Biotechnol. 16,468-472) in the presence of appropriate antibiotics: G418 400 μg/ml; zeocin 100 μg/ml. Optimized CaPO4 protocols were used for high efficiency transient transfection of all cell lines (id). Transient transfected cells were routinely analyzed after 48 h for GFP or SEAP expression using fluorescence microscopy and p-nitrophenolphosphate-based light absorbance timecourse, respectively, as described before (Fussenegger et al., 1998, Nat. Biotechnol. 16, 468-472; Berger et al., 1988, Gene 66, 1-10 b). For construction of stable CHO-PIT and CHO-TWIN cell lines, CHO-K1 was cotransfected either with pMF156 or pTWIN1 and pSV2neo carrying the G418 resistance gene. CHO-PIT1-SEAP was constructed by cotransfection of pMF172 and pZeoSV2 (Invitrogen). For assessment of dose-response characteristics of PPIR -regulated gene expression, CHO-PIT1-SEAP were cultured at cell densities of 150,000/ml for 48 at various PI concentrations. The mixed populations were cloned using FACS-mediated single-cell-sorting (FACStar^Plus; Beckton Dickinson). Gel retardation assay were performed as described (Salah-Bey et al., 1995, supra) using Pip purified from an overproducing strain of E. coli. Pip (0.02 pmol) was titrated with a range of antibiotic concentrations in a reaction volume of 20 μl. Protein solutions were pre-incubated at room temperature for 15 min. in the absence or presence of PI or its derivative quinupristin in a buffer containing 10 mM Tris (pH 7.8), 10 mM MgCl2, 300 mM NaCl, 2 mM DTT and 10% glycerol. An EcoRI-HindII PPTR fragment (0.02 pmol) containing three Pip binding sites (radiolabelled using α-^32 P)dATP was added and incubated for 15 min. To minimize nonspecific protein binding and increase protein stability, 2 μg of poly dIdC and 20 μg BSA were included in the incubation mix. Protein-DNA complexes were separated on 5% polyacrylamide,TBE gels and visualized by autoradiography.
Five different sources of pristinamycin were used: The two therapeutic forms Pyostacin™ and Synercid™, pristinamycin discs, and the single compounds pristinamycin I (PI) and pristinamycin II (PII). Pyostacin™ pills (500 mg) were ground in a mortar and solubilized in DMSO or water at a stock concentration of 50 mg/ml. Synercid™ (RP 59500; Lot Nr. CB06253) was provided by Aventis in injection-ready vials containing 500 mg lyophilized antibiotic which was reconstituted in 5 ml of 5% glucose solution and frozen at -20° C. Individual pristinamycin compounds PI and PII (identical to virginiamycin M1 (VM1); Sigma ref. V2753) were solubilized in DMSO at a concentration of 50 mg/ml and kept at -20° C. Antibiotic discs containing 15 μg pristinamycin or virginiamycin (bioMerieux, ref. 54552; bioMerieux, ref. 54612) were soaked in 1 ml cell culture medium at 4i C for up to 24 h. […] The concentration of individual streptogramin components was calculated based on their fixed 70:30 ratio (w/w; PII/VM1 /dalfopristin: PI/VS1 /quinupristin). […]

PIT/PPIR system [2] = target: T1, PIT/PPIR system; test: SEAP reporter assay, CHO-TWIN clones transfected with pMF172 (PPIR-SEAP); format: cell-based; conditions: for activity at 2 µg/mL / activity at 10 µg/mL: 48 h, CHO-TWIN1108 + pMF172, crossregulation, read-out: SEAP Production (%); for activity at 10 µg/mL: 10 μg/ml
From the text: (§2) pTWIN contains both PIT and tTA in a PSV40 -driven dicistronic configuration. For construction of pTWIN, PIT was first transferred from pMF156 as an EcoRI/HindIII fragment to the corresponding sites of pSBC-1 (EcoRI/HindIII; resulting in pMF167) before the PIT expression unit could be fused to the tTA expression unit contained on pSBC2-tTA (Fussenegger et al., 1997, supra) via SspI/NotI sites. Thus, pTWIN contains the dicistronic PSV40 -PIT-IRES-tTA-pA expression cassette.
as §1
(§3) CHO-TWIN195 and CHO-TWIN1108 were transfected under identical conditions with the isogenic plasmids containing the SEAP gene under control of the tTA-activated promoter PhCMV*-1 (pMF111) or the PIT-activated promoter PPIR (pMF172). Transfected cells were grown for 48 h in the presence or absence of either antibiotic prior to assay of SEAP activity.
(§4) Table 6: Comparison of the regulation performance of streptogramin- (PI and virginiamycin; VIR) and tetracycline-based gene regulation systems. The two cell clones CHO-TWIN195 and CHO-TWIN1108 containing both pristinamycin- and tetracycline-dependent transactivators were transfected with either the streptogramin-responsive or the TET-responsive SEAP reporter plasmids pMF172 (PPIR -SEAP) and pMF111 (PhCMV*-1 -SEAP), respectively, and the relative SEAP production was assessed. SEAP production values are normalized by SEAP activities under the antibiotic-free, active promoter conditions as follows: pMF172 in CHO-TWIN195:1.7 mU/ml; in CHO-TWIN1108 : 1.8 mU/ml. pMF111 in CHO-TWIN195 : 18.6 mU/ml; in CHO-TWIN1108 : 19.2 mU/ml.
(§5) Table 7: Compatibility of the streptogramin- and tetracycline-based gene regulation systems. Crossregulation of pristinamycin (PI) and the tetracyclines doxycycline (DOX) and tetracycline (TET). […]

[3] = target: T2, TET-responsive system (tTA/PhCMV*-1) (Escherichia coli, UniProt P04483); test: SEAP reporter assay, CHO-TWIN clones transfected with pMF111 (PhCMV*-1-SEAP); format: cell-based; conditions: for SEAP Production (%): 48 h, no inducer = 100
T2 construct: expressed in transfected cells; host or cells: CHO-K1 clones CHO-TWIN195 and CHO-TWIN1108 (pTWIN1)
From the text: as §2, §1, §3, §4, §5

Pip/PPTR = target: T3, Pip/PPTR (Streptomyces coelicolor, UniProt Q9ADN3); test: Gel retardation assay of Pip/PPTR interaction; format: binding; conditions: Pip 0.2 pmol titrated with 50 pmol to 0.01 pmol antibiotic
T3 construct: gel retardation with ptr promoter DNA (PPTR) of S. pristinaespiralis
T3 sequence (Q9ADN3 1-252): T1 sequence (Q9ADN3 1-252)
From the text: FIG. 1: Gel retardation assay showing Pip/PPTR interaction. PPTR of S. pristinaespiralis contains 3 dyad symmetrical binding sites (lane A; PPTR in the absence of Pip) all of which are saturated at relatively large amounts of purified Pip (0.4 pmol; […]) resulting in a single shifted band. Smaller amounts of Pip (0.02 pmol) presented an intermediate situation in which all possible permutations of site occupancy are represented in three distinct retarded bands (lane C). Pip (0.2 pmol lanes D-M) was titrated with a range of PI from 50 pmol to 0.01 pmol (lanes D-H; D: 50 pmol; E: 10 pmol; F: 1 pmol; G: 0.1 pmol; H: 0.01 pmol). […]
Chinese hamster ovary cells (CHO-K1, ATCC: CCL 61), Baby hamster kidney cells (BHK-21, ATCC: CRL-8544), and HeLa cells (ATCC: CRL-7923) as well as stable cell lines CHO-PIT1, CHO-PIT2, CHO-TWIN195, CHO-TWIN1108 and CHO-PIT1-SEAP were cultured as described before (Fussenegger et al., 1998, Nat. Biotechnol. 16,468-472) in the presence of appropriate antibiotics: G418 400 μg/ml; zeocin 100 μg/ml. […] Transient transfected cells were routinely analyzed after 48 h for GFP or SEAP expression using fluorescence microscopy and p-nitrophenolphosphate-based light absorbance timecourse, respectively, as described before (Fussenegger et al., 1998, Nat. Biotechnol. 16, 468-472; Berger et al., 1988, Gene 66, 1-10 b). […]

T2 sequence (P04483 whole entry, added parts left off): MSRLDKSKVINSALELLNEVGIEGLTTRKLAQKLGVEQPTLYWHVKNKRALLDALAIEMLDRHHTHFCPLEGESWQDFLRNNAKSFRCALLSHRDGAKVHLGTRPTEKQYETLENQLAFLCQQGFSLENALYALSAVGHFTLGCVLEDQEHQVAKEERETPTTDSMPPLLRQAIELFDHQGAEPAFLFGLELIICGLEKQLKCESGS

**Q.** Which results are given for `CC1=CC(O)CC(=O)Cc2nc(co2)C(=O)N2CCC=C2C(=O)OC(C(C)C)C(C)C=CC(=O)NCC=C1` (stereo not drawn) [PII, pristinamycin II]?
**A.** Downregulation of PIT/PPIR-mediated SEAP expression (PIT/PPIR system [1]; CHO-K1, 2 μg/ml): did not display any significant repression activity; activity at 2 µg/mL (PIT/PPIR system [1]; CHO-K1, inducer 2 μg/ml, assayed 48 hr later, no inducer = 100, read-out: SEAP Production (%)): 96.3 ± 3.2%

**Q.** Which inhibition at 2 µg/mL (PIT/PPIR system [2]; 2 μg/ml, read-out: Repressive effect on the PIT/PPIR system) does the source give for `CN(C)[C@@H]1C(=O)C(C(N)=O)=C(O)[C@@]2(O)C(=O)C3=C(O)c4c(O)cccc4[C@@](C)(O)[C@H]3C[C@@H]12` [TET, tetracycline] here?
**A.** Its inhibition at 2 µg/mL is 17%.

**Q.** What about the activity at 2 µg/mL (PIT/PPIR system [2]; 2 μg/ml) of the same compound?
**A.** The activity at 2 µg/mL was 87.7 ± 1.76%.

**Q.** What about the activity at 10 µg/mL (PIT/PPIR system [2]) of the same compound?
**A.** Its activity at 10 µg/mL is 57.5 ± 5%.

**Q.** And the “Induction factor (IF; ratio of maximal expression level to antibiotic-repressed expression level)” value ([3]; CHO-TWIN195 + pMF111)?
**A.** Its value is 12.

**Q.** And the “SEAP Production (%)” value ([3]; CHO-TWIN195 + pMF111)?
**A.** Its value is 8.57 ± 0.37%.

**Q.** And the “Induction factor (fold downregulation of SEAP)” value ([3]; CHO-TWIN1108 + pMF111, 2880 min)?
**A.** Its value is 13 fold.

**Q.** And the “SEAP Production (%)” value ([3]; CHO-TWIN1108 + pMF111)?
**A.** The value was 7.56 ± 0.01%.

**Q.** How did the “Release of Pip from PPTR” value (Pip/PPTR) turn out when `CC[C@H]1NC(=O)[C@@H](NC(=O)c2ncccc2O)[C@@H](C)OC(=O)[C@H](c2ccccc2)NC(=O)[C@@H]2CC(=O)[C@H](CS[C@@H]3CN4CCC3CC4)CN2C(=O)[C@H](Cc2ccc(N(C)C)cc2)N(C)C(=O)[C@@H]2CCCN2C1=O` (stereo in doubt) [quinupristin] was run?
**A.** The value was “only partial release”.

**Q.** Which activity at 2 µg/mL (PIT/PPIR system [2]; 2 μg/ml) does the source give for `C[C@H]1c2cccc(O)c2C(O)=C2C(=O)[C@]3(O)C(O)=C(C(N)=O)C(=O)[C@@H](N(C)C)[C@@H]3[C@@H](O)[C@@H]21` [DOX, doxycycline] here?
**A.** Its activity at 2 µg/mL is 77 ± 6.9%.

**Q.** And the activity at 10 µg/mL (PIT/PPIR system [2])?
**A.** The activity at 10 µg/mL was 50.5 ± 7.9%.
